Laboratory results reported in PubChem BioAssay (NCI).
Several values for one entry are separate records, joined by “and”; a condition that tells them apart may be missing. Equal values may be shown once.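 Each compound was tested at five concentrations against cells in 96-well plates for 48 hours. GI50: concentration for 50% inhibition of growth. The concentration for full growth arrest is given as TGI.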

Tests used:
Assay in all cases: DTP human tumour cell line panel, 48 h
[1] = system: UACC-62 melanoma
[2] = system: HCT-15 colon
[3] = system: A549 NSCLC
[4] = system: UACC-257 melanoma
[5] = system: KM12 colon
[6] = system: M14 melanoma
[7] = system: HCC-2998 colon
[8] = system: SN12C renal
[9] = system: SF-268 CNS
[10] = system: SR leukemia

SMILES	TGI [1]	TGI [2]	TGI [3]	TGI [4]	TGI [5]	TGI [6]	TGI [7] [µM]	TGI [8]	TGI [9]	TGI [10] [µM]	GI50 [1] [µM]	GI50 [2] [µM]	GI50 [3] [µM]	GI50 [4] [µM]	GI50 [5] [µM]	GI50 [6] [µM]	GI50 [7] [µM]	GI50 [8] [µM]	GI50 [9] [µM]	GI50 [10] [µM]
C=CCCC(OCOCCOC)c1cc(C)c(O[Si](C)(C)C(C)(C)C)c(C)c1 (stereo unspecified)	38.1 µM	31.4 µM	38.5 µM	26.6 µM	29.3 µM	> 100 µM	27.5	32.2 µM	34.1 µM	–	–	–	–	–	–	–	–	–	–	–
COc1ccc(C(=O)OCC2OC(n3cnc4c(=S)nc[nH]c43)C(OC(=O)c3ccc(OC)cc3)C2OC(=O)c2ccc(OC)cc2)cc1 (stereo unspecified)	> 100 µM	> 100 µM	> 100 µM	> 100 µM	> 100 µM	> 100 µM	> 100	–	> 100 µM	> 100	–	–	–	–	–	–	–	–	–	–
COc1ccc(C[C@@H]2Cc3cc(OC)c(OC)cc3CN2C)cc1	–	> 100 µM	> 100 µM	> 100 µM	> 100 µM	> 100 µM	> 100	> 100 µM	> 100 µM	–	–	–	–	–	–	–	–	–	–	–
CC1(C)COC(C23C4C5C2C2C3C4C52I)=N1 (stereo unspecified)	> 100 µM	> 100 µM	> 100 µM	> 100 µM	–	> 100 µM	> 100	> 100 µM	> 100 µM	–	–	–	–	–	–	–	–	–	–	–
CCOC(C)C(/C=N/NC(N)=S)=NNC(N)=S (stereo unspecified)	> 100 µM	> 100 µM	> 100 µM	> 100 µM	> 100 µM	–	> 100	> 100 µM	> 100 µM	> 100	–	–	–	–	–	–	–	–	–	–
O=S1c2ccccc2N=C(c2ccc3ccccc3c2)CC1C1=CC=CCC1 (stereo unspecified)	34.5 µM	35.7 µM	91.2 µM	34.8 µM	32.2 µM	35.6 µM	26.2	36.9 µM	> 100 µM	–	–	–	–	–	–	–	–	–	–	–
CCCN(CCCCC(NC(C)=O)C(=O)NCc1ccccc1)C(=O)N(C)N=O (stereo unspecified)	> 100 µM	> 100 µM	> 100 µM	> 100 µM	> 100 µM	> 100 µM	> 100	> 100 µM	> 100 µM	–	–	–	–	–	–	–	–	–	–	–
C/C=C(\C)C(=O)N[C@H]1CC[C@]2(C)C3CC[C@@]4(C)C(CC[C@@H]4C(C)N(C)C)C3CCC2[C@H]1OC(C)=O (stereo partly specified)	3.74 µM	2.4 µM	4.69 µM	4.16 µM	5.15 µM	3.69 µM	2.97	4.26 µM	2.89 µM	–	1.95	0.762	2.07	2.12	2	1.85	1.56	1.7	1.39	–
COC(=O)/C=C1/CCC2[C@@H](C(=O)CC3[C@]2(C)CCC[C@@]3(C)C(=O)OC)C1C (stereo partly specified)	30.1 µM	35.9 µM	37.7 µM	24.7 µM	27 µM	29.1 µM	39.8	40.6 µM	38.6 µM	–	–	–	–	–	–	–	–	–	–	–
CC1=C(C(=O)Nc2ccc(F)c(Cl)c2)C(c2ccccc2Cl)NC(=S)N1 (stereo unspecified)	> 50 µM	> 50 µM	> 50 µM	49.7 µM	> 50 µM	> 50 µM	–	42.9 µM	> 50 µM	> 50	9.63	16.2	24.8	19.7	41.9	34.9	–	13.3	27.6	23.1
CC1CC2(C)ON=C(c3ccccc3)N2c2ccccc2S1 (stereo unspecified)	84.3 µM	–	–	–	42.5 µM	83.2 µM	–	34.2 µM	–	–	21	44.6	34.3	36.8	17.5	31.7	–	18	36.3	34.6
CN(C)CCNC(=O)c1cc2ccccc2c2nc3ccccc3nc12	7.3 µM	3.24 µM	> 44.4 µM	3.09 µM	2.89 µM	–	3.92	3.89 µM	2.02 µM	3.68	–	–	–	–	–	–	–	–	–	–
CCCCCCCCCCCCCC(=O)O[C@H]1CC[C@H](NC(=O)[C@H](OC)[C@H](O)[C@@H](O)[C@H](O)/C=C/C(C)C)C(=O)NC1	0.0143 µM and 0.045 µM	21.1 µM and 90.7 µM	7.34 µM and 13.8 µM	27.2 µM and 20.4 µM	1.19 µM and 7.64 µM	0.345 µM and 0.556 µM and 0.129 µM	–	10.8 µM and 18.6 µM	18.8 µM and 22.5 µM	9.3	–	–	–	–	–	–	–	–	–	< 0.001
COc1ccc(-c2[nH]c3ccccc3c2C=C(C#N)C#N)cc1	–	> 100 µM	> 100 µM	> 100 µM	–	–	3.16	> 100 µM	65.6 µM	–	0.347	0.587	0.694	> 20.6	0.373	0.289	0.67	1.15	0.708	–
CC1=NN(c2ccccc2)C(=O)C1N=Nc1ccc([As](=O)(O)O)c(O)c1 (stereo unspecified)	> 100 µM	> 100 µM	> 100 µM	> 100 µM	> 100 µM	> 100 µM	–	> 100 µM	> 100 µM	> 100	–	–	–	–	–	–	–	–	–	–
O=S(=O)(O)O.[NH-]C1CCCCC1[NH-].[Pt+2] (stereo unspecified)	> 100 µM	> 100 µM	> 100 µM	> 100 µM	> 100 µM	> 100 µM	> 100	> 100 µM	> 100 µM	–	> 100	61.5	80.4	> 100	> 100	> 100	> 100	> 100	> 100	–
CC(=O)N1N=C2/C(=C/c3ccccc3)CC(C)CC2C1c1ccccc1 (stereo unspecified)	26 µM	28.9 µM	51.5 µM	32.6 µM	33.9 µM	–	21.2	30.4 µM	30.6 µM	33	12.6	13.7	13.3	16.5	12.4	–	8.86	14.8	14.8	10.7
Cc1ccc(NC(=O)CCC(CC(=O)C(C)(C)C)=NNC(=O)C(=O)NN)cc1C	> 100 µM	> 100 µM	> 100 µM	> 100 µM	> 100 µM	> 100 µM	> 100	> 100 µM	> 100 µM	–	–	–	–	–	–	–	–	–	–	–
COC(=O)C1=C(O)c2cc(OC)c(OC)c(OC)c2[C@H](c2cc(OC)c(OC)c(OC)c2)C1C(=O)OC (stereo partly specified)	76 µM	> 100 µM	> 100 µM	> 100 µM	> 100 µM	> 100 µM	83.9	> 100 µM	> 100 µM	–	–	–	–	–	–	–	–	–	–	–
